This is an account of results in patent US10787423B2, “Piperazine and piperidine derivatives, their synthesis and use thereof in inhibiting VDAC oligomerization, apoptosis and mitochondria dysfunction” (THE NATIONAL INSTITUTE FOR BIOTECHNOLOGY IN THE NEGEV LTD., priority 2015, dated 2020).

This assay concerns the target T1, rVDAC1-GFP2 / rVDAC1-Rluc in T-REx-293 cells (Rattus norvegicus, UniProt Q9Z2L0).
T1 construct: The rVDAC1 gene was cloned into BamHI and HindIII sites of the BRET2 plasmids (N2 variants); expressed in transfected cells; host or cells: T-REx-293 cells stably expressing hVDAC1-shRNA (T-REx-pS10)
The experiment in a line: BRET2 assay of VDAC1 oligomerization induced by apoptosis inducers (Method A). The format is cell-based. The following applies: test compound 10 μM, 1 h pre-incubation; for BRET2, % of inhibition, As2O3: As2O3 60 μM (3 h); for BRET2, % of inhibition, STS: STS 1 μM (3 h); for BRET2, % of inhibition, Selenite: selenite 30 μM (3 h). From the text: BRET2 screening may be carried out as described in the art ([…] et al., (2010) Oligomerization of the mitochondrial protein voltage-dependent anion channel is coupled to the induction of apoptosis. Mol Cell Biol 30, 5698-5709). Plasmids encoding the fusion proteins rat(r)VDAC1-GFP2 and rVDAC1-luc were constructed using the BRET2 plasmids (Perkin Elmer, Waltham, Mass.). The rVDAC1 gene was cloned into BamHI and HindIII sites of the BRET2 plasmids (N2 variants) and amplified using the forward primer [NT] and the reverse primer [NT]. […] The cells were transfected using calcium phosphate method. Transfections were carried out with 0.2 μg of a plasmid coding for rVDAC1-Rluc and with 0.8 μg of a plasmid coding for rVDAC1-GFP2. As a negative control, cells were transfected with plasmids encoding for rVDAC1-Rluc (0.2 μg DNA) and GFP2 (0.8 μg). In another control (control cells), cells were also transfected with a plasmid encoding for rVDAC1-luc (0.2 μg) and plasmid pcDNA4/TO (0.8 μg). The BRET2 signal represents the ratio of the GFP2 fluorescence, measured at its emission wavelength (510 nm), over the light intensity (luminescence) emitted at 395 nm. All measurements were performed using the Infinite 200 ELISA reader (Tecan). BRET2 signals were defined as GFP2/Rluc intensity ratio and calculated as follows: DNA encoding fusion proteins rVDAC1-Rluc (in which RLuc was connected to rVDAC1 at the C terminal position through a linker (GGGS)) and rVDAC1-GFP2 (in which the GFP2 was fused to the rVDAC1 C terminus) was cloned into BRET2 vectors. rVDAC1-GFP2 and rVDAC1-Rluc were expressed in T-REx-293 cells stably expressing shRNA-hVDAC1 and a low level of endogenous hVDAC1 (referred to as T-REx-pS10 cells) hVDAC1-shRNA, being specific to human VDAC1, allowed the expression of rVDAC1 and decreased the participation of endogenous hVDAC1 in oligomerization, thereby enhancing the BRET2 signal. rVDAC1-GFP2 and rVDAC1-Rluc expression levels were correlated with the amount of plasmids used. […] Following incubation, cells were harvested using trypsin, washed twice with PBS by centrifugation at 1000×g, 5 min, resuspended in 200 μl of PBS and divided between two wells of a 96-well clear-bottom plate (Grenier). […] The screening was conducted using BRET2 assay as described above. […] After treatment, the medium was removed and assayed for BRET2 signals as described above. Liquid handling was done with the Tecan (Männedorf, Switzerland) Freedom 150 Robotic & MCA Liquid Handling System, while luciferase luminescence and fluorescence readings were obtained a robot-integrated Tecan Infinite M1000 reader. Method A was used for screening of VDAC1 oligomerization inhibitors. […] Table 2 provides a summary of BRET2-based screen results of the anti-VDAC1 oligomerization activity of compounds from the NCI library. Results are presented as percent inhibition of the BRET2 signal induced by the indicated pro-apoptotic agent.
On the technique in general: BRET reads energy transfer from a luciferase to a nearby fluorophore.

T1 sequence (Q9Z2L0 with tags, fused parts or gaps limits assumed): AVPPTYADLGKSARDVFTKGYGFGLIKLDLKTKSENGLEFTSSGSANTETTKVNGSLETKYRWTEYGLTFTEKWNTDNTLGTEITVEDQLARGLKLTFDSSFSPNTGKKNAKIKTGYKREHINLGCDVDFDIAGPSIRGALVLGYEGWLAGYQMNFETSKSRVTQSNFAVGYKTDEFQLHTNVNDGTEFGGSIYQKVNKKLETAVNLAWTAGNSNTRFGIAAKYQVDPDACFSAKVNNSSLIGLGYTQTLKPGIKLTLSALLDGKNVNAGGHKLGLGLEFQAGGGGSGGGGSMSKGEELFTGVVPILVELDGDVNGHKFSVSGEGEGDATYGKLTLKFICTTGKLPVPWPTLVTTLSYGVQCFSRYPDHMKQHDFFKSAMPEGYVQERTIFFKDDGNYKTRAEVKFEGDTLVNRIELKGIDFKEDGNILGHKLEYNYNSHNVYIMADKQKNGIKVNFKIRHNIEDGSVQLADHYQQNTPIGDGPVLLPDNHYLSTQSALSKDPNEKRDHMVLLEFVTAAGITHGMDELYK

Regarding `CN1[C@@H]2CC[C@H]1CC(OC(c1ccccc1)c1ccccc1)C2.CS(=O)(=O)O` (stereo partly drawn) [NSC 42199], the “BRET2, % of inhibition, As2O3” value is listed as 97%; the “BRET2, % of inhibition, STS” value turned out to be 31%; the “BRET2, % of inhibition, Selenite” value is 78.7%.
The corresponding values for `CC(=O)N1C=Cc2c(c(C)c3c([nH]c4ccccc43)c2C)C1` [NSC 657149] are 88.3%, 0% and 25.3%.
For `CCOc1ccc(Nc2c3ccccc3nc3ccccc23)cc1` [NSC 30205], in that order: 62.7%, 0% and 0%.
For `Nc1ccc(NC(=O)Nc2ccc(N)cc2)cc1` [NSC 15364], in that order: 85.4%, 40.9% and 75.9%.
`CCCOc1nc2c(c(=O)n(C)c(=O)n2C)n1C` [NSC 8816]: the “BRET2, % of inhibition, As2O3” value is reported as 49.6%; the “BRET2, % of inhibition, STS” value is recorded as 0%; the “BRET2, % of inhibition, Selenite” value worked out at 20.1%.
The corresponding values for `COc1ccc(C2OC3=C(Nc4cc(C)c(C)cc4N3)C2=O)cc1` (stereo not drawn) [NSC 372275] are 72.5%, 28.5% and 46.5%.
For `Clc1ccc(/C=C/c2nc(Cl)c(-c3ccc(Cl)cc3)c(Cl)n2)cc1` [NSC 154389], in that order: 90.6%, 45.9% and 90.6%.
With `O=P(O)(O)c1cc(-c2ccccc2)oc1-c1ccccc1` [NSC 43344], the “BRET2, % of inhibition, As2O3” value turned out to be 80.7%; the “BRET2, % of inhibition, STS” value was 23.8%; the “BRET2, % of inhibition, Selenite” value was 50.1%.
The corresponding values for `CC1=CC(=O)C(C(C)=Nc2ccccc2Cl)C(=O)O1` (stereo not drawn) [NSC 32892] are 55.4%, 0% and 16.4%.
For `CN(C)c1cccc(/C=C(\C#N)c2ccccc2)c1` [NSC 667251], in that order: 77.5%, 1.4% and 0%.
For `COc1ccc(/C=C2/CCOC2=O)cc1` [NSC 10428], in that order: 96.4%, 38.2% and 75.7%.
With `Nc1ccc(C(=O)Oc2ccc([N+](=O)[O-])cc2)cc1` [NSC 163802], the “BRET2, % of inhibition, As2O3” value was found to be 65.8%; the “BRET2, % of inhibition, STS” value came to 0%; the “BRET2, % of inhibition, Selenite” value turned out to be 1.2%.
Regarding `O=C(Oc1ccc(NC(=O)c2cc3c(cc2Br)OCO3)cc1)c1ccccc1` [NSC 268487], the “BRET2, % of inhibition, As2O3” value was 86.7%; the “BRET2, % of inhibition, STS” value is reported as 0%; the “BRET2, % of inhibition, Selenite” value came to 69.4%.
For `CC(C)NC(=O)c1ccc(C(C)C)cc1` [NSC 20045], in that order: 88%, 0% and 77.4%.
`O=C(Nc1ccc(Cl)c(Cl)c1)Nc1ccccc1O` [NSC 522131]: the “BRET2, % of inhibition, As2O3” value came out at 86.8%; the “BRET2, % of inhibition, STS” value came out at 0%; the “BRET2, % of inhibition, Selenite” value was determined as 47.6%.
The corresponding values for `Nc1cc2c3c(cccc3c1)C(=O)N(CCN1CCCC1)C2=O` [NSC 308849] are 99.5%, 0% and 0%.
`O=C(c1cccnc1)c1cc(-c2ccccn2)c(=O)n2ccccc12` [NSC 324623]: the “BRET2, % of inhibition, As2O3” value amounted to 78%; the “BRET2, % of inhibition, STS” value is listed as 0%; the “BRET2, % of inhibition, Selenite” value worked out at 16.3%.
The corresponding values for `O=C(O)c1cc2ccccc2c2cc(Br)ccc12` [NSC 151252] are 100%, 0% and 29.8%.
The corresponding values for `COC(=NC(C)C)NC(C)C` [NSC 672441] are 69.6%, 0% and 41.8%.
For `C=CCNC(=O)c1ccc(OC)cc1` [NSC 404057], in that order: 74.6%, 0% and 37.1%.
Regarding `CC(C)OC(=O)Nc1ccc(-c2ccc(NC(=O)OC(C)C)cc2Cl)c(Cl)c1` [NSC 43678], the “BRET2, % of inhibition, As2O3” value was 95.1%; the “BRET2, % of inhibition, STS” value turned out to be 34.6%; the “BRET2, % of inhibition, Selenite” value amounted to 78.3%.
The corresponding values for `Nc1nc(N)c(C=Nc2ccc(Br)cc2)c(Nc2ccc(Br)cc2)n1` [NSC 103520] are 82.5%, 22.7% and 74%.
The corresponding values for `Nc1ncnc2c1cnn2C1CCCCC1` [NSC 19115] are 64.2%, 36.4% and 62%.
For `O=C(Nc1ccc(Br)c2ccccc12)c1ccc2ccccc2c1O` [NSC 601359], in that order: 97.7%, 46% and 74.4%.
Regarding `O=[N+]([O-])c1cccc(/C=C/c2ccccn2)c1` [NSC 19637], the “BRET2, % of inhibition, As2O3” value was 76.2%; the “BRET2, % of inhibition, STS” value was determined as 0%; the “BRET2, % of inhibition, Selenite” value is 61.8%.
Regarding `CCOC(=O)Nc1ccc(C(=O)/C=C/c2ccccc2)cc1` [NSC 31703], the “BRET2, % of inhibition, As2O3” value is reported as 56.7%; the “BRET2, % of inhibition, STS” value is 16.6%; the “BRET2, % of inhibition, Selenite” value was found to be 33.3%.
For `O=C(/C=C/c1ccccc1)NC(=S)Nc1ncccn1` [NSC 205968], in that order: 58.5%, 0% and 0%.
The corresponding values for `COc1c(NC(C)=O)c2ccccc2c2ccccc12` [NSC 31698] are 51.3%, 0% and 2.1%.
For `O=[N+]([O-])c1ccc(-c2ncc(-c3ccc(Br)cc3)o2)cc1` [NSC 372767], in that order: 77.3%, 0% and 26.6%.
On to `NCc1c(O)ccc2ccccc12` [NSC 48422], for which the “BRET2, % of inhibition, As2O3” value is 0%; the “BRET2, % of inhibition, STS” value is given as 36.8%; the “BRET2, % of inhibition, Selenite” value was 38.6%.
For `CCN(CC)Cc1cc2[nH]c3c4ccc(Cl)cc4ncc3c2cc1OC` [NSC 317605], in that order: 46%, 0.3% and 52%.
Consider `CCN1CCc2ccccc2C1` [NSC 28837], for which the “BRET2, % of inhibition, As2O3” value is on record as 85.2%; the “BRET2, % of inhibition, STS” value is listed as 0.3%; the “BRET2, % of inhibition, Selenite” value is 48.3%.
For `O=C(Nc1ccc(C2=NCCN2)cc1)c1ccc(Cl)c(C(=O)Nc2ccc(C3=NCCN3)cc2)c1` [NSC 67436], in that order: 78.1%, 14.8% and 65.7%.
For `CC(C)COC(=O)NC1c2ccccc2Oc2ccccc21` [NSC 31069], in that order: 74.9%, 0% and 0%.
